The text below walks through data of PMC6123649, “Structural basis for specific inhibition of the highly sensitive ShHTL7 receptor” (EMBO Reports, 2018).

Assay [1] deals with T1, ShHTL7 (Striga hermonthica, UniProt A0A0M3PNA2).
T1 sequence (A0A0M3PNA2 1-271): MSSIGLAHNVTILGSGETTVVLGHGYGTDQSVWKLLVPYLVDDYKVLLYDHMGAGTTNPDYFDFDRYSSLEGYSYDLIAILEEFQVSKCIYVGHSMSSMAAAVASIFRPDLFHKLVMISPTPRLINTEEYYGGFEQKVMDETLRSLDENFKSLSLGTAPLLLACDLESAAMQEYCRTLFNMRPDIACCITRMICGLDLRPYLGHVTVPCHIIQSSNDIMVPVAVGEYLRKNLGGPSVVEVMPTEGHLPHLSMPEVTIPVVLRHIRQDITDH
Nature of the assay: Yoshimulactone Green (YLG) hydrolysis competition assay. In kind it is biochemical. How it is done: In vitro YLG hydrolysis assays were performed using 3 μM of ShHTL7, ShHTL7‐L143Y, AtD14, and OsD14 in a reaction buffer (1× PBS) with 0.1% dimethyl sulfoxide (DMSO) in a 100 μl volume on a 96‐well black plate (Greiner). The fluorescent intensity was measured by SpectraMax i3 (Molecular Devices) using an excitation wavelength of 480 nm and a detection wavelength of 520 nm. […] Protein‐Triton mixes were pre‐incubated for 30 min. 1 μM YLG (Tokyo Chemical Industry Co. Ltd.) was then added, and the assay was incubated for 60 min. The change in fluorescence observed over the course of 1 h incubation of YLG in buffer without protein was subtracted from the data collected in the presence of protein. The resulting relative fluorescence values were analyzed. The inhibitory curves and IC50 values were plotted using GraphPad (Prism 6) four‐parameter logistic curve. The rate of YLG hydrolysis by ShHTL7 was recorded following the above method at 10‐min interval for 2 h.

The target in assay [2] is T1, ShHTL7. Nature of the assay: Microscale thermophoresis (MST). Type of assay: binding. On the procedure:
ShHTL7 was N‐terminally labeled with RED dye (NT‐647) following the protocol from manufacturer (NanoTemper, Germany). Free dye was removed by passing through the Sephadex G‐25 column. Serial dilutions of unlabeled Triton X‐100, GR24, and PAA ranging from 25 μM to sub‐nanomolar range were mixed with 20 nM of NT‐647‐labeled ShHTL7 in buffer (50 mM Tris–HCl, 150 mM NaCl, 0.005% Tween‐20) and incubated for 2.5 h in the studies for Triton X‐100 and PAA except with GR24, and it was recorded after 10‐min incubation. About 10 μl of sample was loaded into premium monolith NT capillaries, and assays were carried out in a NanoTemper Monolith NT.015T. The red fluorescence was excited by a light‐emitting diode, and its emission was recorded on the focused part of capillaries. Using laser diode, a microscopic temperature gradient was created at the same location and the fluorescence depletion was measured. K d values were determined by plotting the concentrations of unlabeled ligands against the changes in fluorescent thermophoresis signal, and the data were analyzed using the NanoTemper analysis software.

Assay [3] addresses T1, ShHTL7. Nature of the assay: Differential static light scattering (DSLS), aggregation temperature. In kind it is binding. The note with it: 10 μM protein, varying compound concentrations. How it is done: The specific aggregation temperature, T agg, at which ShHTL7, ShHTL7L143Y, AtD14, and OsD14 aggregated in the presence or absence of Triton X‐100, GR24, and PAA was measured using DSLS on the Stargazer system (Harbinger Biotechnology and Engineering Corporation, Markham, Canada). Protein samples at a concentration of 10 μM were overlaid with mineral oil in a clear bottom 384‐well black plate (Corning) and heated from 20 to 95°C at 1°C/min; light scattering was detected by a CCD camera every 0.5°C in the presence or absence of varying concentrations of Triton X‐100, GR24, and PAA yielding the difference in aggregation temperature at a particular concentration from apoproteins (ΔT agg). Data were normalized, and ΔT agg plotted against the Triton X‐100, GR24, and PAA concentration. Resulting data were plotted to determine the change in T agg of all proteins when bound to Triton X‐100, GR24, and PAA using GraphPad (Prism 6).

The test system of a further assay is Striga hermonthica seeds. Nature of the assay: Striga hermonthica germination bioassay. The note with it: for effect on GR24-induced Striga germination: n‐dodecyl‐β‐D‐maltoside at 15 and 1.5 µM, same conditions as Triton. In kind it is in vivo. How it is done: Striga hermonthica seeds were collected from Sorghum bicolor field in Sudan. For germination bioassays, Striga seeds were first sterilized and pre‐conditioned as described before 31. […] Triton X‐100/GR24 mixtures were applied (50 μl per disk) in four replicates. Corresponding volumes of GR24 and sterile MiliQ water were included as positive and negative control, respectively. The petri dishes were sealed with parafilm, enfolded with aluminum foil, and incubated for 48 h at 30°C. The germinated (seeds with radicle emerging through the seed coat) and non‐germinated Striga seeds were recorded under a binocular, and germination percentage was calculated.

Assay [4] has as its target T1, ShHTL7. Nature of the assay: Intrinsic tryptophan fluorescence assay. In kind it is binding.
Assay [5] has as its target T1, ShHTL7. In words: Drug affinity response target stability (DARTS) assay. Type of assay: binding. The note with it: 100 μM compound; proteinase K 10 μg/ml. How it is done:
ShHTL7 and mutants were diluted to a concentration of 30 μM in 50 mM Tris–HCl pH 7.5, 150 mM NaCl, 0.005% Tween‐20, incubated with GR24 at final concentration of 100 μM for 5 min, and separately with 100 μM Triton X‐100 for 2 h. One sample was kept aside for use as an undigested control. Proteinase K (Hampton Research) was then added to ShHTL7 protein to a final protease concentration of 10 μg/ml. Reactions were incubated at room temperature for 5 min and then SDS–PAGE loading buffer was added to stop the reaction, and the samples were immediately boiled for 3 min. Equal amounts of each sample, corresponding to 10 μg of protein, were run on a 4–20% gradient polyacrylamide gel (Bio‐Rad) and analyzed by Coomassie Blue staining 32.

Assay [6] concerns the target T1, ShHTL7. The following applies: cited from earlier work.
The next assay has as its system ShHTL4‐6. The arrangement: method as in PMID 26293962. The following applies: transgenic A. thaliana, read-out: EC50 values for GR24; cited from earlier work.
The target in assay [7] is T1, ShHTL7. The arrangement: method as in PMID 26293962, PMID 26450211. The following applies: read-out: IC50 for GR24, in vitro YLG assay; recombinant ShHTL7; cited from earlier work.
For the next assay, the system named is ShHTL6. The arrangement: method as in PMID 26293962, PMID 26450211. The note with it: recombinant ShHTL6; read-out: IC50 for GR24, in vitro YLG assay; cited from earlier work.

Like-named read-outs stand apart in the source and are kept apart here.

For orientation: IC50 means the concentration that inhibits the measured activity by half. For the molecule `CC(C)(C)CC(C)(C)c1ccc(OCCO)cc1` [4-ter-octylphenol Monoethoxylate, 4‐ter‐octylphenol monoethoxylate], the IC50 on ShHTL7 [1] worked out at 9.24 ± 3.17 µM.

Usually Kd stands for the constant that tells how readily two partners part at equilibrium. Low values mean a tighter complex, high ones a looser complex. As a reminder, the inhibition is the relative decrease from the control value, in per cent. `CC(C)(C)CC(C)(C)c1ccc(OCC(=O)O)cc1` [PAA, 2‐[4‐(2,4,4‐trimethylpentan‐2‐yl)phenoxy]acetic acid] returned a Kd on ShHTL7 [2] of 1700 ± 240 nM. This molecule registered an IC50 at ShHTL7 [1] of 1.48 µM. For the same molecule, the “effect on ShHTL7 aggregation temperature (T agg)” value (from here on “effect … (T agg)”) at ShHTL7 [3] is “stabilized”. Also, the inhibition at 10 µM with Striga hermonthica seeds (Striga hermonthica, 48 h, read-out: inhibition of S. hermonthica germination) was at most 40%.

Regarding `CCOC(=O)c1ccccc1-c1c2ccc(=O)cc-2oc2cc(OC3C=C(C)C(=O)O3)ccc12` (stereo not shown) [YLG, reference compound], the “time for hydrolysis of YLG by ShHTL7” value at ShHTL7 [1] (3 μM ShHTL7, 1 μM YLG, absence of Triton) is listed as at most 50 min.

The molecule `CC(C)(C)CC(C)(C)c1ccc(OCCOCCO)cc1` [4-ter-octylphenol diethoxylate, 4‐ter‐octylphenol diethoxylate] yielded an IC50 on ShHTL7 [1] of 7.48 ± 2.13 µM.

Turning to `CCCCCCCCCCCCO[C@@H]1O[C@H](CO)[C@@H](O[C@H]2O[C@H](CO)[C@@H](O)[C@H](O)[C@H]2O)[C@H](O)[C@H]1O` [n‐dodecyl‐β‐D‐maltoside, reference compound], the “binding to ShHTL7 (MST)” value on ShHTL7 [2] (authors' reply in peer review file) is “does neither bind”. Moreover, the results for the “effect … (T agg)” value on ShHTL7 [3] and at ShHTL7 [3] (listed as nDM) were “did not increase” and “nor increase Tagg”, respectively. Further, the “effect on GR24-induced Striga germination” value was “did not affect germination” in the assay with Striga hermonthica seeds and “does not block germination” in the assay on Striga hermonthica seeds (listed as nDM).

As usually defined, the EC50 is the concentration needed to bring the measured effect to its halfway point. As for `CC1=CC(O/C=C2/C(=O)OC3c4ccccc4CC23)OC1=O` (stereo not shown) [GR24], the Kd at ShHTL7 [2] worked out at 920 ± 10 nM; at ShHTL7 [4], 390 ± 50 nM. For the same molecule, the IC50 on ShHTL7 [1] is 0.87 ± 0.06 µM; at ShHTL7 [7], about 500 nM; with ShHTL6, about 500 nM. The “effect … (T agg)” value at ShHTL7 [3] was “destabilized”. Moreover, the “protection of ShHTL7 from digestion by proteinase K” value on ShHTL7 [5] is listed as “efficiently protected”. Further, at ShHTL7 [6], the “EC50 of GR24 for ShHTL7 in transgenic Arabidopsis” value is “picomolar range”. Moreover, the EC50 on ShHTL7 [6] (read-out: EC50 (vs. GR24), seed germination in transgenic Arabidopsis lines expressing ShHTL7, ref Toh et al., 2015 (ref. 22)) is 0.0175 nM; with ShHTL4‐6 it was 10 to 300 nM.
